Measured values from ChEMBL document CHEMBL5579790, “Development of novel β2-adrenergic receptor agonists for the stimulation of glucose uptake - The importance of chirality and ring size of cyclic amines” (Bioorg Med Chem Lett, 2024).

Target: Beta-2 adrenergic receptor (Rattus norvegicus) (UniProt P10608)
Assay: Agonist activity at beta2-adrenergic receptor in rat L6 cells transfected with GLUT4 assessed as stimulation of skeletal muscle glucose uptake at 10 uM relative to isoprenaline
Format: functional, cell-based

Sequence of Beta-2 adrenergic receptor (Rattus norvegicus) (P10608 whole entry, looked up): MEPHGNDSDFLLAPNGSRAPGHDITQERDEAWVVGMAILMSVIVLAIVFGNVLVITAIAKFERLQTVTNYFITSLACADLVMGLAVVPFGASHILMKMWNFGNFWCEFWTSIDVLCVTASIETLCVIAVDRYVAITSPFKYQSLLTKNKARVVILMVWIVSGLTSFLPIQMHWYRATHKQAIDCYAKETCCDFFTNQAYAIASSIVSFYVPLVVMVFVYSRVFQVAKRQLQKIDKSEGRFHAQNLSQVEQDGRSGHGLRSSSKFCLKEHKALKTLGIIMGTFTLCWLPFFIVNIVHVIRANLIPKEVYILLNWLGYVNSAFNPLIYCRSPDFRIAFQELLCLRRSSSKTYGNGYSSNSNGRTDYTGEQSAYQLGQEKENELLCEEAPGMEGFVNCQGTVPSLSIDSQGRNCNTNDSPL

Compound	Activity [%]	Activity (filed as agonist) [%]
CCC[C@H]1C[C@H]([C@@H](O)c2cccc(F)c2)N1	37	–
CCC[C@H](C)NC[C@@H](O)c1cccc(O)c1	32	–
CCC[C@@H]1CCCC[C@@H]([C@@H](O)c2cccc(F)c2)N1	< 10	–
CCCCNC[C@@H](O)c1cccc(F)c1	< 10	–
CCC[C@H]1CC[C@@H]([C@@H](O)c2cccc(F)c2)N1	–	64
CCC[C@H]1CCC[C@H]([C@@H](O)c2cccc(F)c2)N1	–	56
CCCCNC[C@H](O)c1cccc(O)c1	–	63
CCC[C@H]1C[C@@H]([C@H](O)c2cccc(F)c2)N1	19	–
CCC[C@@H]1CCC[C@@H]([C@@H](O)c2cccc(F)c2)N1	< 10	–
CCC[C@@H]1CCC[C@H]([C@H](O)c2cccc(F)c2)N1	–	52
CCC[C@H]1CCCC[C@H]([C@@H](O)c2cccc(F)c2)N1	15	–
CCCCNC[C@H](O)c1cccc(F)c1	–	57
CCC[C@@H](C)NC[C@H](O)c1cccc(O)c1	–	130
CCC[C@@H]1CC[C@H]([C@@H](O)c2cccc(F)c2)N1	–	41
CCC[C@@H]1C[C@H]([C@@H](O)c2cccc(F)c2)N1	–	53
CCC[C@H]1CCC[C@@H]([C@@H](O)c2cccc(F)c2)N1	–	48
CCC[C@H](C)NC[C@H](O)c1cccc(O)c1	–	79
CCC[C@H]1CCC[C@H]([C@H](O)c2cccc(F)c2)N1	–	54
CCC[C@H]1CCCC[C@H]([C@H](O)c2cccc(F)c2)N1	–	47
CCC[C@@H](C)NC[C@@H](O)c1cccc(O)c1	–	53
CCC[C@H]1CCCC[C@@H]([C@@H](O)c2cccc(F)c2)N1	39	–

Compound	Activity [%]	Activity (filed as agonist) [%]
CCC[C@@H]1CC[C@@H]([C@H](O)c2cccc(F)c2)N1	–	43
CCCCNC[C@@H](O)c1cccc(O)c1	< 10	–
CCC[C@@H]1CCCC[C@@H]([C@H](O)c2cccc(F)c2)N1	12	–
CCC[C@H]1CCCC[C@@H]([C@H](O)c2cccc(F)c2)N1	19	–
CCC[C@H]1C[C@H]([C@H](O)c2cccc(F)c2)N1	–	72
CCC[C@H]1C[C@@H]([C@@H](O)c2cccc(F)c2)N1	–	45
CCC[C@@H]1C[C@@H]([C@@H](O)c2cccc(F)c2)N1	–	47
CCC[C@H]1CC[C@@H]([C@H](O)c2cccc(F)c2)N1	27	–
CCC[C@@H]1CC[C@H]([C@H](O)c2cccc(F)c2)N1	–	110
CCC[C@@H]1CCCC[C@H]([C@H](O)c2cccc(F)c2)N1	39	–
CCC[C@@H]1CCC[C@H]([C@@H](O)c2cccc(F)c2)N1	–	50
CCC[C@@H]1CC[C@@H]([C@@H](O)c2cccc(F)c2)N1	–	57
CCC[C@H]1CC[C@H]([C@@H](O)c2cccc(F)c2)N1	20	–
CCC[C@@H]1CCCC[C@H]([C@@H](O)c2cccc(F)c2)N1	–	52
CCC[C@@H]1CCC[C@@H]([C@H](O)c2cccc(F)c2)N1	–	42
CCC[C@H]1CC[C@H]([C@H](O)c2cccc(F)c2)N1	–	52
CCC[C@@H](C)NC[C@H](O)c1cccc(F)c1	–	90
CCC[C@H]1CCC[C@@H]([C@H](O)c2cccc(F)c2)N1	–	67
CCC[C@H](C)NC[C@H](O)c1cccc(F)c1	–	75
CCC[C@@H]1C[C@H]([C@H](O)c2cccc(F)c2)N1	–	103
CCC[C@@H]1C[C@@H]([C@H](O)c2cccc(F)c2)N1	31	–
